The values that follow come from US20250326755A1, “CYCLIC QUATERNARY AMMONIUM SALT COMPOUND, AND PREPARATION METHOD THEREFOR AND USE THEREOF” (YICHANG HUMANWELL PHARMACEUTICAL CO., LTD., priority 2022, published 2025).

Molecules are shown by their SMILES. Where two headings read alike, the source gives them in different places.

Assay [1] relates to rat subcutaneous infiltration model. The assay can be described thus: Local anesthetic effect by subcutaneous infiltration, Von Frey needle stimulation of back skin. Type of assay: in vivo, SD rats. Conditions: 1 mg/ml, 0.5 mL subcutaneous injection on the back, 10 rats. On the procedure: After shaving and disinfecting the backs of SD rats (half male and half female) weighing 190-210 grams, a circle with a diameter of approximately 1.5 cm was drawn on one side of the exposed skin. 0.5 mL of a solution containing the drug was subcutaneously injected into the skin in the center. The solution, using physiological saline as the solvent, contained either 2 mg/ml bupivacaine hydrochloride or 1 mg/ml concentration of the compounds listed in Table 2 of the present application. Each group consisted of 10 rats. A Von Frey fiber with a 100-gram force was attached to a needle for local skin stimulation. One minute after drug administration, the rat's response to the stimulus was measured. Testing was conducted at 6 different points within the marked area of drug administration. Skin contraction, avoidance, and other behaviors following stimulation were observed and recorded. Three points in the center and three points around the circle were stimulated, and the number of skin contraction and avoidance behaviors was recorded as N6. […] Each compound was tested on 10 rats.

Another assay deals with sciatic nerve of the rat. Type of assay: in vivo, SD rats. The procedure: The experimental methods described in the following test examples were standard procedures unless otherwise specified. All experimental animals used in the following test examples were SD rats purchased from Hunan Slac Jingda Experimental Animal Co., Ltd. Other test materials, unless stated otherwise, were purchased from conventional biochemical reagent suppliers.
The compounds listed in Table 1 and levobupivacaine hydrochloride (positive control) were administered to three groups of rats fully acclimated to the experimental environment, with one rat per group.
Solution Preparation: 2 mg/ml Levobupivacaine Hydrochloride Injection: 2.670 ml of 7.5 mg/ml levobupivacaine hydrochloride injection (Batch No. 92S0702) was pipetted into a 10 ml volumetric flask. 0.9% NaCl solution was added until the meniscus was level with the calibration line, and the solution was inverted and mixed thoroughly, to prepare 2 mg/ml levobupivacaine hydrochloride injection. 2 mg/ml Example Compound Solution: 6.6 mg of the example compound was accurately weighed and dissolved in 3.3 ml of 0.9% NaCl solution to prepare a 2 mg/ml example compound solution.
Both the positive control and the example compound were administered to each rat at 2 mg/ml, with an administration volume of 5 ml/kg, in a single injection near the sciatic nerve of the rat. After the administration, the rat was placed on a preheated hot plate (50±0.1° C.) of an intelligent hot plate instrument. […] The maximum thermal latency was controlled at 60 s. […] Any urine or feces on the hot plate was promptly cleaned and dried before subsequent tests.
Thermal latency results were expressed as the maximum proportional effect (MPE), calculated using the following formula.
Wherein: B represented the basal thermal latency of the rats; P was the maximum thermal latency C was the observed thermal latency at the detection time point.
Measurements were considered invalid if the MPE was less than 50% of the maximum proportional effect. If two consecutive measurements yielded an MPE of less than […], the experiment was terminated.

Where [2] appears, read: 2 mg/ml, 5 ml/kg, single injection near the sciatic nerve of the rat, hot plate 50±0.1° C.

As to `CCCC[N+]1(CCCCNc2ccccc2)CCCC[C@H]1C(=O)Nc1c(C)cccc1C` (stereo partly drawn) [Compound of Example 1, (2S)-1-Butyl-2-((2,6-dimethylphenyl)carbamoyl)-1-(4-(phenylamino)butyl)piperidine bromide], in assay [1], the Duration/h was 48 to 72 h and the “Onset Time/min” value amounted to 1 min. Further, in the assay on sciatic nerve of the rat (rat, in vivo), the Duration/h lay in the range of 24 to 48 h and the “Onset Time/min” value turned out to be 1 min.
Consider `CCCC[N+]1(CCCCNc2ccc(C)cc2)CCCC[C@H]1C(=O)Nc1c(C)cccc1C` (stereo partly drawn) [Compound of Example 2, (2S)-1-Butyl-2-((2,6-dimethylphenyl)carbamoyl)-1-(4-(p-toluidino)butyl)piperidine bromide], for which, in assay [1], the Duration/h was in the range of 72 to 96 h and the “Onset Time/min” value turned out to be 1 min. Further, in the assay with sciatic nerve of the rat (setting [2]), the Duration/h fell in the range of 48 to 72 h and the “Onset Time/min” value is listed as 1 min.
As to `CCCC[N+]1(CCCCOc2ccccc2)CCCC[C@H]1C(=O)Nc1c(C)cccc1C` (stereo partly drawn) [Compound of Example 4, (2S)-1-Butyl-2-((2,6-dimethylphenyl)carbamoyl)-1-(4-(phenoxy)butyl)piperidine bromide], in assay [1], the Duration/h was 72 to 96 h and the “Onset Time/min” value came out at 1 min. In addition, in the assay on sciatic nerve of the rat (rat, in vivo), the Duration/h lay within 48 to 72 h and the “Onset Time/min” value came to 1 min.
In the case of `CCCC[N+]1(CCCCOc2cc(F)ccc2N)CCCC[C@H]1C(=O)Nc1c(C)cccc1C` (stereo partly drawn) [Compound of Example 6, (2S)-1-(4-(2-amino-5-fluorophenoxy)butyl)-1-butyl-2-((2,6-dimethylphenyl)carbamoyl) piperidine bromide], in assay [1], the Duration/h is 48 to 72 h and the “Onset Time/min” value was 1 min. Further, in the assay on sciatic nerve of the rat (setting [2]), the Duration/h lay within 24 to 48 h and the “Onset Time/min” value is 1 min.
Regarding `CCCC[N+]1(CCCCCNc2ccccc2)CCCC[C@H]1C(=O)Nc1c(C)cccc1C` (stereo partly drawn) [Compound of Example 7, (2S)-1-Butyl-2-((2,6-dimethylphenyl)carbamoyl)-1-(5-(phenylamino)pentyl)piperidine bromide], the Duration/h in assay [1] lay within 48 to 72 h; in the assay on sciatic nerve of the rat (rat, in vivo), 24 to 48 h. Besides, the “Onset Time/min” value came to 2 min in assay [1] and 2 min in the assay with sciatic nerve of the rat (rat, in vivo).
On to `CCCC[N+]1(CCCCCN(C)c2ccccc2)CCCC[C@H]1C(=O)Nc1c(C)cccc1C` (stereo partly drawn) [Compound of Example 8, (2S)-1-Butyl-2-((2,6-dimethylphenyl)carbamoyl)-1-(5-(methyl(phenyl)amino)pentyl)piperidine bromide], for which, in assay [1], the Duration/h lay within 48 to 72 h and the “Onset Time/min” value worked out at 1 min. Also, in the assay on sciatic nerve of the rat (setting [2]), the Duration/h lay within 24 to 48 h and the “Onset Time/min” value came to 1 min.
In the case of `CCCC[N+]1(CCCCCNc2ccc(C)cc2)CCCC[C@H]1C(=O)Nc1c(C)cccc1C` (stereo partly drawn) [Compound of Example 9, (2S)-1-Butyl-2-((2,6-dimethylphenyl)carbamoyl)-1-(5-(p-toluylamino)pentyl)piperidine bromide], in assay [1], the Duration/h was 48 to 72 h and the “Onset Time/min” value came to 1 min. Further, in the assay with sciatic nerve of the rat (setting [2]), the Duration/h is 24 to 48 h and the “Onset Time/min” value is listed as 1 min.
As to `CCCC[N+]1(CCCCCNc2ccc(F)cc2)CCCC[C@H]1C(=O)Nc1c(C)cccc1C` (stereo partly drawn) [Compound of Example 10, (2S)-1-Butyl-2-((2,6-dimethylphenyl)carbamoyl)-1-(5-(p-fluorophenylamino)pentyl)piperidine bromide], in assay [1], the Duration/h fell in the range of 48 to 72 h and the “Onset Time/min” value turned out to be 2 min. In the assay with sciatic nerve of the rat (setting [2]), the “Onset Time/min” value was 2 min.
On to `CCCC[N+]1(CCCCCN2CCn3ccnc3C2)CCCC[C@H]1C(=O)Nc1c(C)cccc1C` (stereo partly drawn) [Compound of Example 11, (2S)-1-Butyl-1-(5-(5,6-dihydroimidazo[1,2-a]pyrazin-7(8H)-yl)pentyl)-2-((2,6-dimethylphenyl)carbamoyl)piperidine bromide], for which, in assay [1], the Duration/h lay within 48 to 72 h and the “Onset Time/min” value was 1 min. Besides, in the assay on sciatic nerve of the rat (setting [2]), the Duration/h was in the range of 24 to 48 h and the “Onset Time/min” value is reported as 1 min.
`CCCC[N+]1(CCCCCN2CCn3cccc3C2C)CCCC[C@H]1C(=O)Nc1c(C)cccc1C` (stereo partly drawn) [Compound of Example 12, (2S)-1-Butyl-2-((2,6-dimethylphenyl)carbamoyl)-1-(5(1-methyl-3,4-dihydropyrrolo[1,2-a]pyrazin-2(1H)-yl)pentyl)piperidine bromide]: in assay [1], the Duration/h was in the range of 48 to 72 h and the “Onset Time/min” value is 1 min. Also, in the assay on sciatic nerve of the rat (setting [2]), the Duration/h is 24 to 48 h and the “Onset Time/min” value came to 1 min.
Take `CCCC[N+]1(CCCCCN2CCn3cccc3C2c2ccccc2)CCCC[C@H]1C(=O)Nc1c(C)cccc1C` (stereo partly drawn) [Compound of Example 13, (2S)-1-Butyl-2-((2,6-dimethylphenyl)carbamoyl)-1-(5-1-phenyl-3,4-dihydropyrrolo[1,2-a]pyrazin-2(1H)-yl)pentyl)piperidine bromide]: the figures for the Duration/h (in assay [1]; in the assay with sciatic nerve of the rat (setting [2])) were 48 to 72 h and 24 to 48 h, respectively. The “Onset Time/min” value (in assay [1]; in the assay with sciatic nerve of the rat (setting [2])) was 1 min each time.
For the compound `CCCC[N+]1(CCCCCOc2ccccc2)CCCC[C@H]1C(=O)Nc1c(C)cccc1C` (stereo partly drawn) [Compound of Example 14, (2S)-1-Butyl-2-((2,6-dimethylphenyl)carbamoyl)-1-(5-(phenoxy)pentyl)piperidine bromide], the Duration/h lay in the range of 48 to 72 h in assay [1] and 24 to 48 h in the assay on sciatic nerve of the rat (rat, in vivo). The “Onset Time/min” value is given as 2 min in assay [1] and 2 min in the assay on sciatic nerve of the rat (rat, in vivo).
As for `CCCC[N+]1(CCCCCOc2cccc(C)c2)CCCC[C@H]1C(=O)Nc1c(C)cccc1C` (stereo partly drawn) [Compound of Example 15, (2S)-1-Butyl-2-((2,6-dimethylphenyl)carbamoyl)-1-(5-(m-tolyloxy)pentyl)piperidine bromide], in assay [1], the Duration/h fell in the range of 48 to 72 h and the “Onset Time/min” value is 1 min. For the same compound, in the assay on sciatic nerve of the rat (setting [2]), the Duration/h was 24 to 48 h and the “Onset Time/min” value is recorded as 1 min.
For the compound `CCCC[N+]1(CCCCCOc2cc(F)ccc2N)CCCC[C@H]1C(=O)Nc1c(C)cccc1C` (stereo partly drawn) [Compound of Example 16, (2S)-1-(5-(2-amino-5-fluorophenoxy)pentyl)-1-butyl-2-((2,6-dimethylphenyl)carbamoyl)piperidine bromide], in assay [1], the Duration/h was 48 to 72 h and the “Onset Time/min” value was found to be 1 min. Moreover, in the assay with sciatic nerve of the rat (setting [2]), the Duration/h lay within 24 to 48 h and the “Onset Time/min” value was 1 min.
For the compound `CCCC[N+]1(CCC(C)CCNc2ccc(F)cc2)CCCC[C@H]1C(=O)Nc1c(C)cccc1C` (stereo partly drawn) [Compound of Example 18, (2S)-1-Butyl-2-((2,6-dimethylphenyl)carbamoyl)-1-(5-(((4-fluorophenyl)amino)-3-methylpentyl)piperidine bromide], the values for the Duration/h (in assay [1]; with sciatic nerve of the rat (setting [2])) were 24 to 28 h and 17 h, respectively. Further, the “Onset Time/min” value (in assay [1]; in the assay with sciatic nerve of the rat (setting [2])) was 2 min in each case.
On to `CCCC[N+]1(CCCCOc2ccc3cc(C(C)=O)ccc3c2)CCCC[C@H]1C(=O)Nc1c(C)cccc1C` (stereo partly drawn) [Compound of Example 43, (2S)-1-(4-((6-acetylnaphth-2-yl)oxy)butyl)-1-butyl-2-((2,6-dimethylphenyl)carbamoyl) piperidine bromide], for which, in the assay on sciatic nerve of the rat (setting [2]), the Duration/h lay in the range of 48 to 72 h and the “Onset Time/min” value stood at 1 min.
